System: HIV with mutations in the HIV protease sequence
Experiment: Phenotypic fold resistance to protease inhibitors, protease mutations 84A/84L/84C/54M/54L/54V in a background (Examples 8-13)
Type: cell-based, HIV-1
Protocol: As is the case with the genotyping assays, the recombinant virus assay starts with the amplification of viral target sequences by means of PCR. The amplicons are incorporated into a proviral laboratory clone with sequences homologous to those present in the amplicon deleted. This generates a stock of chimeric viruses. The viruses are tested for their ability to grow in the presence of different concentrations of drugs. Results are obtained by calculating IC50 values for each inhibitor and by reporting the results as IC50 values, expressed in μM concentrations, or by computing the ratio of the IC50 values found for the chimeric virus to the IC50 values found for a wild type susceptible laboratory virus tested in parallel. In the latter case, resistance is expressed as “fold-resistance” compared to a wild-type susceptible HIV-1 strain. In order to meet the need for high-volume testing and a short turn-around time for an individual test, the latest generation of phenotyping assays has undergone further modifications. The use of reporter gene systems for susceptibility testing allows the implementation of laboratory automation and standardization. See Pauwels, et al., J. Virol. Methods 20, 309-321 (1998); Paulous, S., et al., International Workshop on HIV Drug Resistance, Treatment Strategies and Eradication, St. Petersburg, Fla., USA. Abstr. 46 (1997); and Deeks, S. G., et al., 2nd International Workshop on HIV Drug Resistance and Treatment Strategies, Lake Maggiore, Italy. Abstr. 53 (1998).
The ANTIVIROGRAM® assay (Virco) (WO 97/27480) is based on homologous recombination of patient derived HIV-1 gag/PR/RT sequences into a proviral HIV-1 clone correspondingly deleted for the gag/PR/RT sequences. See Pauwels, et al., J. Virol. Methods 20, 309-321 (1998). A similar assay (Phenosense ViroLogic) is based on enzymatic ligation of patient-derived PR/RT sequences into a correspondingly deleted proviral vector carrying an indicator gene, luciferase, inserted in the deleted HIV-1 envelope gene. See Deeks, S. G., et al., 2nd International Workshop on HIV Drug Resistance and Treatment Strategies, Lake Maggiore, Italy. Abstr. 53 (1998). Hertogs et al. Antimicrob. Agents Chemother. 44(3) 568-573 (2000) the disclosures of which are herein incorporated by reference.
The methods of monitoring HIV-1 drug resistance, may also be used in combination with phenotypic drug resistance testing of viral isolates. For example, in one embodiment, a phenotypic test is utilized that is based upon the construction of chimeric HIV-1 strains composed of the protease (PR) and reverse transcriptase (RT) gene sequences which are isolated and amplified from the patient viral RNA. These strains may subsequently be recombined inside CD4+ T cells with a standard laboratory isogenic (HXB2) HIV-1 DNA construct from which the PR/RT gene sequences were deleted. The recombinant strains may then be grown in the presence of the above-mentioned antiviral drugs and the susceptibility of the viral isolates may be expressed as fold-change value of the IC50 of the drug on the patient isolates over the IC50 of the drug on a wild-type laboratory reference strain.

Cc1c(O)cccc1C(=O)N[C@@H](CSc1ccccc1)[C@H](O)CN1C[C@H]2CCCC[C@H]2C[C@H]1C(=O)NC(C)(C)C [Nelfinavir, nelfinavir]
Fold change in IC50 (Table 12, V055199, genotype 10I + 33F + 54M + 90M): 11.7 fold
Fold change in IC50 (Table 13, V19263, genotype 77I): 0.9 fold
Fold change in IC50 (Table 13, V20160, genotype WT): 0.7 fold
Fold change in IC50 (Table 13, V021667, genotype 10I): 1.0 fold
Fold change in IC50 (Table 13, V030496, genotype 10I + 77I): 0.7 fold
Fold change in IC50 (Table 13, V048868, genotype 10I + 54L + 71V + 77I + 90M): 15.6 fold
Fold change in IC50 (Table 13, V048874, genotype 10I + 33F + 54L + 71V + 77I + 90M): 14.5 fold
Fold change in IC50 (Table 13, V048875, genotype 10I + 33F + 54L + 71V + 77I + 90M): 12.5 fold
Fold change in IC50 (Table 13, V048877, genotype 10I + 33F + 77I + 90M): 9.4 fold
Fold change in IC50 (Table 13, V048880, genotype 10I + 33F + 77I + 90M): 4.9 fold
Fold change in IC50 (Table 13, V052940, genotype 71V): 0.6 fold
Fold change in IC50 (Table 13, V052942, genotype 10I + 71V): 0.9 fold
Fold change in IC50 (Table 13, V052943, genotype 10I + 90M): 2.2 fold
Fold change in IC50 (Table 13, V052944, genotype 10I + 90M): 1.4 fold
Fold change in IC50 (Table 13, V052945, genotype 77I + 90M): 3.0 fold
Fold change in IC50 (Table 13, V052946, genotype 71V + 90M): 3.0 fold
Fold change in IC50 (Table 13, V052947, genotype 10I + 77I + 90M): 8.2 fold
Fold change in IC50 (Table 13, V052948, genotype 10I + 71V + 90M): 9.0 fold
Fold change in IC50 (Table 13, V052949, genotype 10I + 71V + 77I + 90M): 8.6 fold
Fold change in IC50 (Table 13, V052950, genotype 33F): 1.0 fold
Fold change in IC50 (Table 13, V052951, genotype 33F + 77I): 5.2 fold
Fold change in IC50 (Table 13, V052953, genotype 10I + 33F + 77I): 0.9 fold
Fold change in IC50 (Table 13, V052954, genotype 33F + 77I + 90M): 5.9 fold
Fold change in IC50 (Table 13, V052955, genotype 33F + 71V + 90M): 36.6 fold
Fold change in IC50 (Table 13, V052968, genotype 10L/I + 33F/L + 54L + 77I): 3.5 fold
Fold change in IC50 (Table 13, V052969, genotype 10I + 33F + 54L + 90M): 3.4 fold
Fold change in IC50 (Table 13, V052970, genotype 54L): 1.6 fold
Fold change in IC50 (Table 13, V052971, genotype 10I + 54L): 1.0 fold
Fold change in IC50 (Table 13, V052972, genotype 54L + 77I): 3.0 fold
Fold change in IC50 (Table 13, V052973, genotype 10I + 54L + 77I): 2.8 fold
Fold change in IC50 (Table 13, V052974, genotype 10I + 54L + 90M): 2.6 fold
Fold change in IC50 (Table 13, V052975, genotype 10I + 54L + 71V + 90M): 41.3 fold
Fold change in IC50 (Table 13, V052976, genotype 10I + 54L + 71V + 77I + 90M): 8.9 fold
Fold change in IC50 (Table 13, V053832, genotype 10I + 33F): 1.6 fold
Fold change in IC50 (Table 13, V053854, genotype 54L + 71V): 5.9 fold
Fold change in IC50 (Virco ID 214846, genotype 10I + 33F + 54V + 71V + 77I + 90M, vs mean IC50 of wild type laboratory HIV strain): 43.5 fold
Fold change in IC50 (Virco ID V021667, genotype 10I, vs mean IC50 of wild type laboratory HIV strain): 1.0 fold
Fold change in IC50 (Virco ID V030496, genotype 10I + 77I, vs mean IC50 of wild type laboratory HIV strain): 0.7 fold
Fold change in IC50 (Virco ID V048876, genotype 33F + 54V + 77I + 90M, vs mean IC50 of wild type laboratory HIV strain): 1.6 fold
Fold change in IC50 (Virco ID V048877, genotype 10I + 33F + 77I + 90M, vs mean IC50 of wild type laboratory HIV strain): 9.4 fold
Fold change in IC50 (Virco ID V048880, genotype 10I + 33F + 77I + 90M, vs mean IC50 of wild type laboratory HIV strain): 4.9 fold
Fold change in IC50 (Virco ID V052940, genotype 71V, vs mean IC50 of wild type laboratory HIV strain): 0.6 fold
Fold change in IC50 (Virco ID V052942, genotype 10I + 71V, vs mean IC50 of wild type laboratory HIV strain): 0.9 fold
Fold change in IC50 (Virco ID V052943, genotype 10I + 90M, vs mean IC50 of wild type laboratory HIV strain): 2.2 fold
Fold change in IC50 (Virco ID V052944, genotype 10I + 90M, vs mean IC50 of wild type laboratory HIV strain): 1.4 fold
Fold change in IC50 (Virco ID V052946, genotype 71V + 90M, vs mean IC50 of wild type laboratory HIV strain): 3.0 fold
Fold change in IC50 (Virco ID V052947, genotype 10I + 77I + 90M, vs mean IC50 of wild type laboratory HIV strain): 8.2 fold
Fold change in IC50 (Virco ID V052948, genotype 10I + 71V + 90M, vs mean IC50 of wild type laboratory HIV strain): 9.0 fold
Fold change in IC50 (Virco ID V052949, genotype 10I + 71V + 77I + 90M, vs mean IC50 of wild type laboratory HIV strain): 8.6 fold
Fold change in IC50 (Virco ID V052950, genotype 33F, vs mean IC50 of wild type laboratory HIV strain): 1.0 fold
Fold change in IC50 (Virco ID V052951, genotype 33F + 77I, vs mean IC50 of wild type laboratory HIV strain): 5.2 fold
Fold change in IC50 (Virco ID V052953, genotype 10I + 33F + 77I, vs mean IC50 of wild type laboratory HIV strain): 0.9 fold
Fold change in IC50 (Virco ID V052954, genotype 33F + 77I + 90M, vs mean IC50 of wild type laboratory HIV strain): 5.9 fold
Fold change in IC50 (Virco ID V052955, genotype 33F + 71V + 90M, vs mean IC50 of wild type laboratory HIV strain): 36.6 fold
Fold change in IC50 (Virco ID V052957, genotype 10I + 33F + 54V + 90M, vs mean IC50 of wild type laboratory HIV strain): 6.9 fold
Fold change in IC50 (Virco ID V052958, genotype 10I + 33F + 54V + 77I + 90M, vs mean IC50 of wild type laboratory HIV strain): 4.8 fold
Fold change in IC50 (Virco ID V052959, genotype 10I + 33F + 54V + 77I + 90M, vs mean IC50 of wild type laboratory HIV strain): 7.5 fold
Fold change in IC50 (Virco ID V052960, genotype 10I + 33F + 54V + 71V + 90M, vs mean IC50 of wild type laboratory HIV strain): 40.7 fold
Fold change in IC50 (Virco ID V052961, genotype 54V, vs mean IC50 of wild type laboratory HIV strain): 1.0 fold
Fold change in IC50 (Virco ID V052962, genotype 10I + 54V, vs mean IC50 of wild type laboratory HIV strain): 0.6 fold
Fold change in IC50 (Virco ID V052963, genotype 54V + 77I + 90M, vs mean IC50 of wild type laboratory HIV strain): 3.2 fold
Fold change in IC50 (Virco ID V052964, genotype 54V + 71V + 90M, vs mean IC50 of wild type laboratory HIV strain): 3.3 fold
Fold change in IC50 (Virco ID V052965, genotype 10I + 54V + 77I + 90M, vs mean IC50 of wild type laboratory HIV strain): 15.1 fold
Fold change in IC50 (Virco ID V052966, genotype 10I + 54V + 71V + 90M, vs mean IC50 of wild type laboratory HIV strain): 55.4 fold
Fold change in IC50 (Virco ID V052967, genotype 10I + 54V + 71V + 77I + 90M, vs mean IC50 of wild type laboratory HIV strain): 0.8 fold
Fold change in IC50 (Virco ID V053358, genotype 33F + 54V + 77I + 90M, vs mean IC50 of wild type laboratory HIV strain): 2.1 fold
Fold change in IC50 (Virco ID V053831, genotype 33F + 54V, vs mean IC50 of wild type laboratory HIV strain): 5.9 fold
Fold change in IC50 (Virco ID V053832, genotype 10I + 33F, vs mean IC50 of wild type laboratory HIV strain): 1.6 fold

Reference: patent US8574831B2, “Mutational profiles in HIV-1 reverse transcriptase correlated with phenotypic drug resistance” (Virco N.V., priority 2000, dated 2013)
